Assay results as given in ChEMBL document CHEMBL1201862, “PubChem BioAssay data set” (2004).
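All cell lines were grown in 96-well plates and treated with compound for 48 hours. Abbreviation: GI50, concentration required for 50% inhibition of growth.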 Calls of active or inactive are those of the source. Rule as the data show it: active = GI50 up to about 1.1 µM and inactive = higher.

Experiments:
Assay in all cases: DTP human tumour cell line panel, 48 h
[1] = tested on: A549
[2] = tested on: HL-60
[3] = tested on: SF-295
[4] = tested on: SK-MEL-5
[5] = tested on: HCT-15
[6] = tested on: KM-20L2
[7] = tested on: Malme-3M
[8] = tested on: NCI-H226
[9] = tested on: 786-0
[10] = tested on: SNB-75
[11] = tested on: LOX IMVI
[12] = tested on: U-251
[13] = tested on: TK-10
[14] = tested on: HOP-62

Compound	GI50 [1]	GI50 [2]	GI50 [3]	GI50 [4]	GI50 [5] [µM]	GI50 [6]	GI50 [7]	GI50 [8]	GI50 [9]	GI50 [10]	GI50 [11]	GI50 [12]	GI50 [13]	GI50 [14]
C=C1C(=O)C23C(O)C1CCC2C12CO[C@]3(O)[C@@H](O)C1C(C)(C)CCC2O (stereo not given in full)	18.5 µM (inactive)	5.01 µM (inactive)	16.7 µM (inactive)	22.4 µM (inactive)	11.9	16.1 µM (inactive)	5.92 µM (inactive)	18.8 µM (inactive)	12.2 µM (inactive)	15.7 µM (inactive)	16.5 µM (inactive)	17.4 µM (inactive)	19.4 µM (inactive)	24.4 µM (inactive)
COC(=O)c1cc(Cl)ccc1NC(=O)c1ccc([N+](=O)[O-])cc1	19.6 µM (inactive)	27.4 µM (inactive)	2.42 µM (inactive)	47.5 µM (inactive)	32.2	21.3 µM (inactive)	23 µM (inactive)	20.3 µM (inactive)	14.6 µM (inactive)	6.73 µM (inactive)		7 µM (inactive)	16.9 µM (inactive)	15.2 µM (inactive)
O=C(CCc1nnc2s/c(=C\c3ccc4c(c3)OCO4)c(=O)n12)Nc1cc(Cl)ccc1Cl	> 100 µM (inactive)	> 55.2 µM (inactive)	> 100 µM (inactive)	> 100 µM (inactive)	> 39.8	> 100 µM (inactive)	> 100 µM (inactive)	> 100 µM (inactive)	> 100 µM (inactive)	> 100 µM (inactive)	> 100 µM (inactive)	> 100 µM (inactive)	> 100 µM (inactive)	> 100 µM (inactive)
O=C(C#Cc1ccccc1)NC/C=C/c1ccccc1	36 µM (inactive)	24.1 µM (inactive)	38.6 µM (inactive)	45.1 µM (inactive)	38.9	44.9 µM (inactive)	49.8 µM (inactive)	31.6 µM (inactive)	24.2 µM (inactive)	17.8 µM (inactive)	38.5 µM (inactive)	39 µM (inactive)	47.3 µM (inactive)	22.8 µM (inactive)
CN1N=CSC12C(=O)N(c1ccc(Cl)cc1)C(=O)N2c1ccc(Cl)cc1 (stereo not given)	3.46 µM (inactive)	2.13 µM (inactive)	3.28 µM (inactive)	3.55 µM (inactive)		3.21 µM (inactive)	3.55 µM (inactive)	3.04 µM (inactive)	4.22 µM (inactive)	3.99 µM (inactive)	3.21 µM (inactive)	3.67 µM (inactive)	3.84 µM (inactive)	3.69 µM (inactive)
CCC1(N=[N+]=[N-])C(=O)Nc2cc(C)ccc2C1=O (stereo not given)	> 100 µM (inactive)	21.3 µM (inactive)	> 100 µM (inactive)	51.8 µM (inactive)	72.1	> 100 µM (inactive)	68.1 µM (inactive)		> 100 µM (inactive)	> 100 µM (inactive)	86.5 µM (inactive)	96.2 µM (inactive)	> 100 µM (inactive)	> 100 µM (inactive)
CN(C)c1ccc(/C=C(\NC(=O)c2ccccc2)c2nc3cncnc3[nH]2)cc1	> 100 µM (inactive)	> 100 µM (inactive)	> 100 µM (inactive)	> 100 µM (inactive)	> 100	> 100 µM (inactive)	> 100 µM (inactive)		> 100 µM (inactive)			> 100 µM (inactive)	> 100 µM (inactive)	
CN1CCN(C)C1c1cccc(C2N(C)CCN2C)c1		> 100 µM (inactive)	> 100 µM (inactive)		> 100	> 100 µM (inactive)		> 100 µM (inactive)	> 100 µM (inactive)	48.2 µM (inactive)	> 100 µM (inactive)	> 100 µM (inactive)		> 100 µM (inactive)
NC1=Nc2ccccc2Sc2ccccc21	> 100 µM (inactive)	> 100 µM (inactive)	> 100 µM (inactive)	91.8 µM (inactive)	> 100	> 100 µM (inactive)	> 100 µM (inactive)	24.4 µM (inactive)	> 100 µM (inactive)	16.5 µM (inactive)	> 100 µM (inactive)	> 100 µM (inactive)	> 100 µM (inactive)	> 100 µM (inactive)
CC(C)(C)S(=O)OC12CC3CC(CC(C3)C1)C2 (stereo not given)	> 100 µM (inactive)		> 100 µM (inactive)	> 100 µM (inactive)	> 100	> 100 µM (inactive)	> 100 µM (inactive)	> 100 µM (inactive)	> 100 µM (inactive)	33.8 µM (inactive)	> 100 µM (inactive)	> 100 µM (inactive)	> 100 µM (inactive)	> 100 µM (inactive)
CNC(=O)NCCCCC(NC(=O)OCc1ccccc1)C(=O)OCc1ccccc1 (stereo not given)	31.6 µM (inactive)	16.8 µM (inactive)	20.6 µM (inactive)	48.6 µM (inactive)	> 100	> 100 µM (inactive)	14.4 µM (inactive)	60.3 µM (inactive)	17.5 µM (inactive)	20.2 µM (inactive)	16.7 µM (inactive)	23.9 µM (inactive)	21.9 µM (inactive)	8.81 µM (inactive)
CC(C)(C)c1cc(C(O)(C(F)(F)F)C(F)(F)F)c2c(c1)C(C(F)(F)F)(C(F)(F)F)OC(c1ccccc1)(C(C)(C)C)N2 (stereo not given)	> 100 µM (inactive)		6.56 µM (inactive)	2.45 µM (inactive)	3.56	4.92 µM (inactive)	7.06 µM (inactive)	3.24 µM (inactive)	> 100 µM (inactive)	2.82 µM (inactive)		3.3 µM (inactive)	3.02 µM (inactive)	
N=C(N)Nc1nc2cc(N)ccc2o1	> 100 µM (inactive)	> 100 µM (inactive)	> 100 µM (inactive)		> 100	> 100 µM (inactive)	> 100 µM (inactive)	> 100 µM (inactive)	> 100 µM (inactive)	> 100 µM (inactive)	> 100 µM (inactive)	> 100 µM (inactive)	> 100 µM (inactive)	> 100 µM (inactive)
COc1ccc(/C(=N/Nc2ccccc2)C(c2ccc(OC)cc2)C2OC(=O)c3ccccc32)cc1 (stereo not given)	99.3 µM (inactive)		> 100 µM (inactive)	33.2 µM (inactive)	> 100	36.6 µM (inactive)	> 100 µM (inactive)	9.84 µM (inactive)	> 100 µM (inactive)	48.9 µM (inactive)		> 100 µM (inactive)		> 100 µM (inactive)
CCOc1ccc(NC(=O)C(=O)C(C(=O)c2ccc3ccccc3c2)C2OC(=O)c3ccccc32)cc1 (stereo not given)	20.2 µM (inactive)			14.2 µM (inactive)	13.7	37.6 µM (inactive)	10.9 µM (inactive)	3.31 µM (inactive)	6.47 µM (inactive)	15.7 µM (inactive)	15.7 µM (inactive)	5.04 µM (inactive)	50.7 µM (inactive)	17.5 µM (inactive)
CCCCCCCCCCCCCP(=O)(O)NCC(N)=O	> 100 µM (inactive)	19.7 µM (inactive)	52 µM (inactive)	61.1 µM (inactive)	39.9	98.6 µM (inactive)	> 100 µM (inactive)	62.4 µM (inactive)	> 100 µM (inactive)	17.4 µM (inactive)	51.5 µM (inactive)	33.5 µM (inactive)	58.3 µM (inactive)	37.8 µM (inactive)
COc1cccc2c1[C@]1(O)C(O)CCCC21 (stereo not given in full)	> 100 µM (inactive)		> 100 µM (inactive)	> 100 µM (inactive)	> 100	> 100 µM (inactive)	> 100 µM (inactive)	> 100 µM (inactive)	> 100 µM (inactive)	> 100 µM (inactive)	> 100 µM (inactive)	> 100 µM (inactive)	> 100 µM (inactive)	> 100 µM (inactive)
CCc1ccccc1NC(=O)C(=O)C(C#N)c1ccccc1Cl (stereo not given)	> 100 µM (inactive)	> 100 µM (inactive)	> 100 µM (inactive)	> 100 µM (inactive)		> 100 µM (inactive)	> 100 µM (inactive)	> 100 µM (inactive)	> 100 µM (inactive)	> 100 µM (inactive)	3.36 µM (inactive)	> 100 µM (inactive)	2.55 µM (inactive)	> 100 µM (inactive)
CCCN1CN(C(C(=O)N[C@@H]2C(=O)N3C(C(=O)O)=C(C)CSC23)c2ccc(O)cc2)CSC1=S (stereo not given in full)	> 100 µM (inactive)	65.9 µM (inactive)	> 100 µM (inactive)	> 100 µM (inactive)	> 100	> 100 µM (inactive)	> 100 µM (inactive)		> 100 µM (inactive)	> 100 µM (inactive)	76.6 µM (inactive)	97.5 µM (inactive)	> 100 µM (inactive)	> 100 µM (inactive)
S=C1NC(c2ccccc2)=NC(Cc2ccccc2)(c2ccccc2)N1c1ccccc1 (stereo not given)	58.9 µM (inactive)	> 100 µM (inactive)	37.9 µM (inactive)	> 100 µM (inactive)	> 100	> 100 µM (inactive)	> 100 µM (inactive)	> 100 µM (inactive)	> 100 µM (inactive)	19.7 µM (inactive)	96.6 µM (inactive)		> 100 µM (inactive)	40.3 µM (inactive)
CC/C(=N/O)C(C)C(=O)CCC(=O)Nc1ccc(Cl)cc1 (stereo not given)	> 100 µM (inactive)	> 100 µM (inactive)	> 100 µM (inactive)	> 100 µM (inactive)	26.9	> 100 µM (inactive)	> 100 µM (inactive)	> 100 µM (inactive)	> 100 µM (inactive)	49.9 µM (inactive)	> 100 µM (inactive)	> 100 µM (inactive)	> 100 µM (inactive)	
O=C1N(Cl)C(=O)C(c2ccc(Cl)cc2)(c2ccc(Cl)cc2)N1Cl	58.6 µM (inactive)	26.1 µM (inactive)	55.3 µM (inactive)	> 100 µM (inactive)	91.8	> 100 µM (inactive)	> 100 µM (inactive)	> 100 µM (inactive)	48.3 µM (inactive)	> 100 µM (inactive)		> 100 µM (inactive)	> 100 µM (inactive)	
